In publication PMC7284125, “Identification of annotated bioactive molecules that impair motility of the blood fluke Schistosoma mansoni” (International Journal for Parasitology: Drugs and Drug …, 2020):

system: S. mansoni schistosomulae; assay: Phenotypic primary screen assay on schistosomulae (phenotype; viability by methylene blue dye exclusion); format: cell-based, Schistosoma mansoni; conditions: three-day-old schistosomulae, 10 μM, 24 h; estimated 5 days post compound exposure
Description: Puerto Rican strain Biomphalaria glabrata snails infected with S. mansoni were kindly provided by Dr. Fred Lewis (Biomedical Research Institute and BEI Resources, MD, USA). Schistosomulae were obtained by exposing six to eight weeks-old snails to continuous light for 2 h at 32 °C. […] At this point, animals with internal dark granulations and with no observable body contraction/relaxation cycles were considered dead.
Schistosomulae were monitored under a stereo microscope (SMZ1270, Nikon). Phenotypic observations were made by analyzing schistosomulae, 24 h after drug addition to assess any immediate effect and five days post-compound exposure to observe long-term impacts on both the movement and overall body shape in comparison to control animals exposed to DMSO only.

| Compound | Phenotype |
| --- | --- |
| C=CC(=O)Nc1cccc(Oc2nc(Nc3ccc(N4CCN(C)CC4)cc3OC)ncc2Cl)c1 [WZ4002] | dark, granulated |
| NC(=O)C(c1ccccc1)(c1ccccc1)[C@@H]1CCN(CCc2ccc3c(c2)CCO3)C1 [Darifenacin] | elongated, granulated |
| CCCN1C[C@H](CSC)C[C@@H]2c3cccc4[nH]cc(c34)C[C@H]21 [Pergolide] | big, round |
| CNCCC(Oc1ccc(C(F)(F)F)cc1)c1ccccc1 (stereo not drawn) [Fluoxetine] | elongated |

system: S. mansoni schistosomulae; assay: Motility assay on schistosomulae (pixel displacement, relative to DMSO control); format: cell-based, Schistosoma mansoni; conditions: Schistosoma mansoni, 120 h; schistosomulae, secondary screen, 24h exposure, read at D5, 1 µM; read-out: Fractional motility
Description: Puerto Rican strain Biomphalaria glabrata snails infected with S. mansoni were kindly provided by Dr. Fred Lewis (Biomedical Research Institute and BEI Resources, MD, USA). Schistosomulae were obtained by exposing six to eight weeks-old snails to continuous light for 2 h at 32 °C. The resulting suspension of cercaria was then mechanically transformed as described ([Lewis, 2001]) and cultured in Opti-MEM/antibiotics (Thermo Fisher Scientific, Waltham, MA) containing 100 μg/mL streptomycin and 100 units/ml penicillin supplemented with 5% fetal bovine serum (FBS; Thermo Fisher). Parasite cultures were incubated at 37 °C with 5% CO2 for at least 10 days with no apparent loss of viability. At this point, animals with internal dark granulations and with no observable body contraction/relaxation cycles were considered dead.
(§1) Schistosomulae (200/well) and adult parasites (unpaired worms) were maintained in 300 μL OPTI-MEM with 5% dialyzed FBS (without antibiotics) and exposed to compounds at 1 and 10 μM for 24 h. A kinetic assay consisting of 1, 3, 6 and 12 h incubation times was performed on selected hits by motility monitoring using a stereo microscope (SMZ1270, Nikon) for adults and an inverted microscope for schistosomulae (eclipse TE2000-U, Nikon) connected to a monochrome camera (DS-Qi2, Nikon) for image acquisition. Images were recorded at a rate of 10 frames/s for a period of 1 min and videos were analyzed using ImageJ software (version 1.41, NIH, USA). Parasite movement quantification and data analysis protocols were applied using the pixel displacement method ([Patocka et al., 2014]; [Rashid et al., 2015]) and compared to control parasites treated with DMSO. Parasites were then washed several times in Opti-MEM, 5% FBS and incubated up to an additional three days (schistosomulae) or five days (adult worms) at 37 °C, 5% CO2 and motility was recorded as described above.

| Compound | activity at 1 µM [%] |
| --- | --- |
| C=CC(=O)Nc1cccc(Oc2nc(Nc3ccc(N4CCN(C)CC4)cc3OC)ncc2Cl)c1 [WZ4002] | 51 |
| NC(=O)C(c1ccccc1)(c1ccccc1)[C@@H]1CCN(CCc2ccc3c(c2)CCO3)C1 [Darifenacin] | -59 |
| CCCN1C[C@H](CSC)C[C@@H]2c3cccc4[nH]cc(c34)C[C@H]21 [Pergolide] | -25 |
| CNCCC(Oc1ccc(C(F)(F)F)cc1)c1ccccc1 (stereo not drawn) [Fluoxetine] | 105 |

same assay, conditions: Schistosoma mansoni; schistosomulae, secondary screen, 24h exposure, read at D1, 1 µM; read-out: Fractional motility

| Compound | activity at 1 µM [%] |
| --- | --- |
| C=CC(=O)Nc1cccc(Oc2nc(Nc3ccc(N4CCN(C)CC4)cc3OC)ncc2Cl)c1 [WZ4002] | -58 |
| NC(=O)C(c1ccccc1)(c1ccccc1)[C@@H]1CCN(CCc2ccc3c(c2)CCO3)C1 [Darifenacin] | -60 |
| CCCN1C[C@H](CSC)C[C@@H]2c3cccc4[nH]cc(c34)C[C@H]21 [Pergolide] | 139 |

same assay, conditions: schistosomulae, secondary screen, 24h exposure, read at D1, 10 µM

| Compound | Fractional motility |
| --- | --- |
| NC(=O)C(c1ccccc1)(c1ccccc1)[C@@H]1CCN(CCc2ccc3c(c2)CCO3)C1 [Darifenacin] | -0.70 |
| CCCN1C[C@H](CSC)C[C@@H]2c3cccc4[nH]cc(c34)C[C@H]21 [Pergolide] | 18.64 |
| CNCCC(Oc1ccc(C(F)(F)F)cc1)c1ccccc1 (stereo not drawn) [Fluoxetine] | 15.72 |

same assay, conditions: schistosomulae, secondary screen, 24h exposure, read at D5, 10 µM

| Compound | Fractional motility |
| --- | --- |
| C=CC(=O)Nc1cccc(Oc2nc(Nc3ccc(N4CCN(C)CC4)cc3OC)ncc2Cl)c1 [WZ4002] | -0.62 |
| NC(=O)C(c1ccccc1)(c1ccccc1)[C@@H]1CCN(CCc2ccc3c(c2)CCO3)C1 [Darifenacin] | 0.35 |
| CCCN1C[C@H](CSC)C[C@@H]2c3cccc4[nH]cc(c34)C[C@H]21 [Pergolide] | -0.34 |
| CNCCC(Oc1ccc(C(F)(F)F)cc1)c1ccccc1 (stereo not drawn) [Fluoxetine] | 0.95 |

system: S. mansoni adult worms; assay: Motility assay on adult parasites (pixel displacement, relative to DMSO control); format: cell-based, Schistosoma mansoni; conditions: adults, 10 μM, long-term after washout
Description: Adult parasites were collected from 40 day-old female CD1 mice (Charles River) previously inoculated by the tail infection method ([Lewis, 2001]). Six weeks post-infection, mice were sacrificed, and adult worms extracted after perfusion of in the hepatic portal vein and mesenteric venules ([Lewis, 2001]). Animal procedures were reviewed and approved by the Facility Animal Care Committee of McGill University (Protocol No. 3346) and were conducted in accordance with the guidelines of the Canadian Council on Animal Care.
as §1

| Compound | motility phenotype in words |
| --- | --- |
| C=CC(=O)Nc1cccc(Oc2nc(Nc3ccc(N4CCN(C)CC4)cc3OC)ncc2Cl)c1 [WZ4002] | hypermotility in male worms and hypomotility in females |

same assay, conditions: secondary screen, 10 μM, D1, Female adult worms

| Compound | Fractional motility |
| --- | --- |
| C=CC(=O)Nc1cccc(Oc2nc(Nc3ccc(N4CCN(C)CC4)cc3OC)ncc2Cl)c1 [WZ4002] | 0.66 |
| NC(=O)C(c1ccccc1)(c1ccccc1)[C@@H]1CCN(CCc2ccc3c(c2)CCO3)C1 [Darifenacin] | 1.90 |
| CCCN1C[C@H](CSC)C[C@@H]2c3cccc4[nH]cc(c34)C[C@H]21 [Pergolide] | 0.25 |
| CNCCC(Oc1ccc(C(F)(F)F)cc1)c1ccccc1 (stereo not drawn) [Fluoxetine] | 1.96 |

same assay, conditions: secondary screen, 10 μM, D1, Male adult worms

| Compound | Fractional motility |
| --- | --- |
| C=CC(=O)Nc1cccc(Oc2nc(Nc3ccc(N4CCN(C)CC4)cc3OC)ncc2Cl)c1 [WZ4002] | 0.64 |
| NC(=O)C(c1ccccc1)(c1ccccc1)[C@@H]1CCN(CCc2ccc3c(c2)CCO3)C1 [Darifenacin] | 3.54 |
| CCCN1C[C@H](CSC)C[C@@H]2c3cccc4[nH]cc(c34)C[C@H]21 [Pergolide] | 2.14 |
| CNCCC(Oc1ccc(C(F)(F)F)cc1)c1ccccc1 (stereo not drawn) [Fluoxetine] | 2.26 |

same assay, conditions: secondary screen, 10 μM, D5, Female adult worms

| Compound | Fractional motility |
| --- | --- |
| C=CC(=O)Nc1cccc(Oc2nc(Nc3ccc(N4CCN(C)CC4)cc3OC)ncc2Cl)c1 [WZ4002] | -0.61 |
| NC(=O)C(c1ccccc1)(c1ccccc1)[C@@H]1CCN(CCc2ccc3c(c2)CCO3)C1 [Darifenacin] | -0.69 |
| CCCN1C[C@H](CSC)C[C@@H]2c3cccc4[nH]cc(c34)C[C@H]21 [Pergolide] | -0.82 |
| CNCCC(Oc1ccc(C(F)(F)F)cc1)c1ccccc1 (stereo not drawn) [Fluoxetine] | 0.45 |

same assay, conditions: secondary screen, 10 μM, D5, Male adult worms

| Compound | Fractional motility |
| --- | --- |
| C=CC(=O)Nc1cccc(Oc2nc(Nc3ccc(N4CCN(C)CC4)cc3OC)ncc2Cl)c1 [WZ4002] | 1.33 |
| NC(=O)C(c1ccccc1)(c1ccccc1)[C@@H]1CCN(CCc2ccc3c(c2)CCO3)C1 [Darifenacin] | -0.23 |
| CCCN1C[C@H](CSC)C[C@@H]2c3cccc4[nH]cc(c34)C[C@H]21 [Pergolide] | -0.30 |
| CNCCC(Oc1ccc(C(F)(F)F)cc1)c1ccccc1 (stereo not drawn) [Fluoxetine] | -0.0243 |

system: S. mansoni schistosomulae; assay: Phenotypic primary screen assay on schistosomulae (phenotype; viability by methylene blue dye exclusion); format: cell-based; conditions: Schistosoma mansoni

| Compound | viability at 10 µM [%] |
| --- | --- |
| NC(=O)C(c1ccccc1)(c1ccccc1)[C@@H]1CCN(CCc2ccc3c(c2)CCO3)C1 [Darifenacin] | 98.5 |

same assay, conditions: Schistosoma mansoni; three-day-old schistosomulae, 10 μM, 24 h; calculated 5 days post compound exposure; read-out: Viability (%)

| Compound | viability at 10 µM [%] |
| --- | --- |
| C=CC(=O)Nc1cccc(Oc2nc(Nc3ccc(N4CCN(C)CC4)cc3OC)ncc2Cl)c1 [WZ4002] | 7 |
| CCCN1C[C@H](CSC)C[C@@H]2c3cccc4[nH]cc(c34)C[C@H]21 [Pergolide] | 99 |
| CNCCC(Oc1ccc(C(F)(F)F)cc1)c1ccccc1 (stereo not drawn) [Fluoxetine] | 98.5 |
